PMC11643494, “Structure–Activity Relationship Studies in a Series of 2-Aryloxy-N-(pyrimidin-5-yl)acetamide Inhibitors of SLACK Potassium Channels” (Molecules, 2024)
pIC50: −log10 of the molar value.

Target: T1, WT human SLACK (Homo sapiens, UniProt Q5JUK3)
T1 construct: host or cells: CHO-K1
T1 sequence (Q5JUK3 1-1235 isoform Q5JUK3-3): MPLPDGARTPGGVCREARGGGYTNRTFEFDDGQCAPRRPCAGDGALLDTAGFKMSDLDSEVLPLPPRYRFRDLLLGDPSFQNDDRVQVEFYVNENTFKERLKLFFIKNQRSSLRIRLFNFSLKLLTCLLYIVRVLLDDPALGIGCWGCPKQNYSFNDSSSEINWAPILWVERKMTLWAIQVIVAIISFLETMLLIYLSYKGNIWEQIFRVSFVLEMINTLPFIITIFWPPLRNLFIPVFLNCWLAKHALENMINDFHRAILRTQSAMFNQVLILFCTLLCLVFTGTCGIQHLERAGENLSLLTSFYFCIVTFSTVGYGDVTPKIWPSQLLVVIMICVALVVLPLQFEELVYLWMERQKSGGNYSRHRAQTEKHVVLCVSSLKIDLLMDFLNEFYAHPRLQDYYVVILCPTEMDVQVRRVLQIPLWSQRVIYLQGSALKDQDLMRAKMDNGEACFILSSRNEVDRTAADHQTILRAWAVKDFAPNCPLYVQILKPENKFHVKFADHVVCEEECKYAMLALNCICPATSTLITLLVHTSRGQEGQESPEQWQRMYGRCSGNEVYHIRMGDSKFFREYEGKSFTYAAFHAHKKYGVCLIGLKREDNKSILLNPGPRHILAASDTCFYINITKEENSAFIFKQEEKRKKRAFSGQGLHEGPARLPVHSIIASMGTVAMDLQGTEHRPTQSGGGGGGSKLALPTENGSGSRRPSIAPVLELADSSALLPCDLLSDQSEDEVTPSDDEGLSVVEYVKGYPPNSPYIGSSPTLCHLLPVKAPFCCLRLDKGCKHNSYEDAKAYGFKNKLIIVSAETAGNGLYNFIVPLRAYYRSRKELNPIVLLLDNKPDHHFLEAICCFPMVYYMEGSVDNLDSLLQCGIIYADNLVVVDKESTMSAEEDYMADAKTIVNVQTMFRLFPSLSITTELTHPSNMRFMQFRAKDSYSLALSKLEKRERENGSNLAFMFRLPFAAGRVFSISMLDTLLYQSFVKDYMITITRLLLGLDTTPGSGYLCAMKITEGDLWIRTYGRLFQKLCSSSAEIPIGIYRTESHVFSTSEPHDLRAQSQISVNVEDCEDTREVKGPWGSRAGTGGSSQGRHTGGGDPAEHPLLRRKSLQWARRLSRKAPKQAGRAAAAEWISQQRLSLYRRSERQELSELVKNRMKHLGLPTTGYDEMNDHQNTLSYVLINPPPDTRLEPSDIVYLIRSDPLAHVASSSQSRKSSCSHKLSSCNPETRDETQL
Assay: Whole-cell automated patch clamp (APC) in CHO-K1 cells stably expressing WT human SLACK
Assay type: cell-based
Settings: for pIC50 / WT SLACK inhibition, result in words: APC; for pIC50: CHO-K1 cells stably expressing WT human SLACK, averages (n ≥ 3); for SLACK Imax: maximum inhibition at 30 µM test compound standardized to VU0606170 (set at 100%), WT human SLACK; for WT SLACK inhibition, result in words: concentrations 0.125 to 30 µM; for Fold less potent than hit 10 (SLACK inhibition): ratio of WT SLACK APC IC50 to hit 10
Experimental: Using concentrations ranging from 0.125 to 30 µM in half-log steps, a concentration–response relationship was generated for each new analog using our APC assay in CHO-K1 cells stably expressing WT SLACK. A minimum of three cells, i.e., replicates, were collected per concentration for each analog.
Automated patch clamp recording was performed with a SyncroPatch 768 PE system (Nanion, Munich, Germany) as previously described. Whole-cell recordings were performed at room temperature. Cells were harvested by first washing with PBS without Mg^2+ or Ca^2+ (Gibco, Billings, MT, USA) to remove cell culture medium, followed by dissociation with TryPLE (Gibco, Billings, MT, USA). Cells were then resuspended and diluted to 200,000 cells/mL in external solution. External solution contained 105 mM NaCl, 4 mM KCl, 1 mM MgCl2, 5 mM CaCl2, 10 mM HEPES, 40 mM N-Methyl-D-glucamine chloride, titrated to pH 7.4 with NaOH and osmolarity of 300 mOsm/kg; internal solution contained 70 mM NaCl, 70 mM KF, 10 mM KCl, 5 mM EGTA, 5mM HEPES, titrated to a pH 7.2 with KOH and osmolarity of 295 mOsm/kg.
The APC protocol was set as following: Cells were held at […] −80 mV for 100 ms, then a ramp protocol was performed from −100 mV to 80 mV at 0.4 mV/ms, hold the cell at −80 mV for another 100 ms, then steps were performed at −20 mV, 0 mV, +20 mV, +40 mV, and +60 mV for 100 ms of each step. Whole-cell currents were measured at 0 mV and normalized to current after external buffer addition.

## CC(C)(Oc1ccc(Cl)cc1)C(=O)Nc1cnc(Oc2ccccc2F)nc1 [Analog 10]
  pIC50: 5.85

## CC(C)(Oc1ccc(Cl)cc1)C(=O)Nc1cnc(Oc2ccccc2)nc1 [Analog 15]
  pIC50: 5.77

## CC(C)(Oc1ccc(Cl)cc1)C(=O)Nc1cnc(Oc2cccc(F)c2)nc1 [Analog 16]
  pIC50: 5.68

## CC(C)(Oc1ccc(Cl)cc1)C(=O)Nc1cnc(Oc2ccc(F)cc2)nc1 [Analog 17]
  pIC50: 5.74
  SLACK Imax: 102%

## CC(C)(Oc1ccc(Cl)cc1)C(=O)Nc1cnc(Oc2ccccc2Cl)nc1 [Analog 18]
  pIC50: 5.92
  SLACK Imax: 97%

## CC(C)(Oc1ccc(Cl)cc1)C(=O)Nc1cnc(Oc2cccc(Cl)c2)nc1 [Analog 19]
  pIC50: 5.82

## CC(C)(Oc1ccc(Cl)cc1)C(=O)Nc1cnc(Oc2ccc(Cl)cc2)nc1 [Analog 20]
  pIC50: 5.92

## Cc1ccccc1Oc1ncc(NC(=O)C(C)(C)Oc2ccc(Cl)cc2)cn1 [Analog 21]
  pIC50: 5.54

## Cc1cccc(Oc2ncc(NC(=O)C(C)(C)Oc3ccc(Cl)cc3)cn2)c1 [Analog 22]
  pIC50: 5.64

## Cc1ccc(Oc2ncc(NC(=O)C(C)(C)Oc3ccc(Cl)cc3)cn2)cc1 [Analog 23]
  pIC50: 5.77

## CC(C)(Oc1ccc(Cl)cc1)C(=O)Nc1cnc(Oc2ccccc2C(F)(F)F)nc1 [Analog 24]
  pIC50: 5.77

## CC(C)(Oc1ccc(Cl)cc1)C(=O)Nc1cnc(Oc2cccc(C(F)(F)F)c2)nc1 [Analog 25]
  pIC50: 5.72
  SLACK Imax: 101%

## CC(C)(Oc1ccc(Cl)cc1)C(=O)Nc1cnc(Oc2ccc(C(F)(F)F)cc2)nc1 [Analog 26]
  pIC50: 6.00

## COc1ccccc1Oc1ncc(NC(=O)C(C)(C)Oc2ccc(Cl)cc2)cn1 [Analog 27]
  pIC50: 5.82
  SLACK Imax: 101%

## COc1cccc(Oc2ncc(NC(=O)C(C)(C)Oc3ccc(Cl)cc3)cn2)c1 [Analog 28]
  pIC50: 5.62
  SLACK Imax: 101%

## COc1ccc(Oc2ncc(NC(=O)C(C)(C)Oc3ccc(Cl)cc3)cn2)cc1 [Analog 29]
  pIC50: 5.74

## CC(C)(Oc1ccc(Cl)cc1)C(=O)Nc1cnc(Oc2ccccc2OC(F)(F)F)nc1 [Analog 30]
  pIC50: 5.85

## CC(C)(Oc1ccc(Cl)cc1)C(=O)Nc1cnc(Oc2ccc(OC(F)(F)F)cc2)nc1 [Analog 32]
  pIC50: 5.72

## CC(C)(Oc1ccc(Cl)cc1)C(=O)Nc1cnc(Oc2ccccc2C#N)nc1 [Analog 33]
  pIC50: 6.03

## CC(C)(Oc1ccc(Cl)cc1)C(=O)Nc1cnc(Oc2cccc(C#N)c2)nc1 [Analog 34]
  pIC50: 5.77

## CC(C)(Oc1ccc(Cl)cc1)C(=O)Nc1cnc(Oc2ccc(C#N)cc2)nc1 [Analog 35]
  pIC50: 5.96

## CC(C)(Oc1ccc(Cl)cc1)C(=O)Nc1cnc(Oc2ccc(S(C)(=O)=O)cc2)nc1 [Analog 36]
  pIC50: 5.96

## CC(C)(Oc1ccc(Cl)cc1)C(=O)Nc1cnc(Oc2ccc(C(N)=O)cc2)nc1 [Analog 37]
  pIC50: < 5.00
  WT SLACK inhibition, result in words: only a weak inhibitor
  SLACK Imax: 110%

## CC(C)(Oc1ccc(Cl)cc1)C(=O)Nc1cnc(Oc2ccc(F)cc2F)nc1 [Analog 38]
  pIC50: 6.00
  SLACK Imax: 101%

## CC(C)(Oc1ccc(Cl)cc1)C(=O)Nc1cnc(Oc2cc(F)ccc2F)nc1 [Analog 39]
  pIC50: 5.89
  SLACK Imax: 101%

## CC(C)(Oc1ccc(Cl)cc1)C(=O)Nc1cnc(Oc2ccc(F)c(F)c2)nc1 [Analog 41]
  pIC50: 5.77

## CC(C)(Oc1ccc(Cl)cc1)C(=O)Nc1cnc(Oc2cc(F)cc(F)c2)nc1 [Analog 42]
  pIC50: 5.85

## CC(C)(Oc1ccc(Cl)cc1)C(=O)Nc1cnc(Oc2c(F)cccc2Cl)nc1 [Analog 43]
  pIC50: 6.24
  SLACK Imax: 91%

## CC(C)(Oc1ccccc1)C(=O)Nc1cnc(Oc2ccccc2F)nc1 [Analog 44]
  pIC50: < 5.00
  WT SLACK inhibition, result in words: only weakly active
  SLACK Imax: 66%

## CC(C)(Oc1ccccc1F)C(=O)Nc1cnc(Oc2ccccc2F)nc1 [Analog 45]
  pIC50: < 5.00
  WT SLACK inhibition, result in words: only weak inhibitors
  SLACK Imax: 25%

## Cc1ccccc1OC(C)(C)C(=O)Nc1cnc(Oc2ccccc2F)nc1 [Analog 50]
  pIC50: 5.54
  Fold less potent than hit 10 (SLACK inhibition): approximately 2 fold

## Cc1cccc(OC(C)(C)C(=O)Nc2cnc(Oc3ccccc3F)nc2)c1 [Analog 51]
  WT SLACK inhibition, result in words: inactive up to the top concentration of 30 µM

## Cc1ccc(OC(C)(C)C(=O)Nc2cnc(Oc3ccccc3F)nc2)cc1 [Analog 52]
  pIC50: 5.15
  SLACK Imax: 97%

## CC(C)(Oc1ccccc1C(F)(F)F)C(=O)Nc1cnc(Oc2ccccc2F)nc1 [Analog 53]
  WT SLACK inhibition, result in words: inactive up to the top concentration of 30 µM

## CC(C)(Oc1cccc(C(F)(F)F)c1)C(=O)Nc1cnc(Oc2ccccc2F)nc1 [Analog 54]
  pIC50: 5.43
  SLACK Imax: 99%

## CC(C)(Oc1ccc(C(F)(F)F)cc1)C(=O)Nc1cnc(Oc2ccccc2F)nc1 [Analog 55]
  pIC50: 5.55
  SLACK Imax: 101%
  Fold less potent than hit 10 (SLACK inhibition): approximately 2 fold

## CC(C)(Oc1ccccc1OC(F)(F)F)C(=O)Nc1cnc(Oc2ccccc2F)nc1 [Analog 56]
  WT SLACK inhibition, result in words: inactive up to the top concentration of 30 µM

## CC(C)(Oc1cccc(OC(F)(F)F)c1)C(=O)Nc1cnc(Oc2ccccc2F)nc1 [Analog 57]
  pIC50: 5.34
  SLACK Imax: 98%

## CC(C)(Oc1ccc(OC(F)(F)F)cc1)C(=O)Nc1cnc(Oc2ccccc2F)nc1 [Analog 58]
  pIC50: < 5.00
  WT SLACK inhibition, result in words: only weak inhibitors
  SLACK Imax: 104%

## CC(C)(Oc1ccc(C#N)cc1)C(=O)Nc1cnc(Oc2ccccc2F)nc1 [Analog 59]
  pIC50: < 5.00
  WT SLACK inhibition, result in words: only weak inhibitors
  SLACK Imax: 109%

## CC(C)(Oc1ccc(S(C)(=O)=O)cc1)C(=O)Nc1cnc(Oc2ccccc2F)nc1 [Analog 60]
  WT SLACK inhibition, result in words: inactive up to the top concentration of 30 µM

## CC(C)(Oc1ccc(C(N)=O)cc1)C(=O)Nc1cnc(Oc2ccccc2F)nc1 [Analog 61]
  WT SLACK inhibition, result in words: inactive up to the top concentration of 30 µM

## CC(C)(Oc1ccc(S(F)(F)(F)(F)F)cc1)C(=O)Nc1cnc(Oc2ccccc2F)nc1 [Analog 62]
  pIC50: 5.39

## CC(C)(Oc1ccc(Cl)cc1)C(=O)Nc1cnc(Sc2ccccc2F)nc1 [Analog 63]
  pIC50: 6.05
  SLACK Imax: 101%

## CC(C)(Oc1ccc(Cl)cc1)C(=O)Nc1cnc(Nc2ccccc2F)nc1 [Analog 64]
  WT SLACK inhibition, result in words: not tolerated

## CN(c1ncc(NC(=O)C(C)(C)Oc2ccc(Cl)cc2)cn1)c1ccccc1F [Analog 65]
  pIC50: 5.68

## CN(c1ccc(S(C)(=O)=O)cc1)c1ncc(NC(=O)C(C)(C)Oc2ccc(Cl)cc2)cn1 [Analog 67]
  pIC50: 5.85
  SLACK Imax: 101%

## CC(C)(Sc1ccc(Cl)cc1)C(=O)Nc1cnc(Oc2ccccc2F)nc1 [Analog 68]
  pIC50: 5.39
  Fold less potent than hit 10 (SLACK inhibition): approximately 3 fold
